Where “and” joins values, the source holds several entries; their conditions need not be identical. Equal values may be shown once. Calls of active or inactive are those of the source.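 The calls were made as follows: active = IC50 under 30000 nM, about half a log past the top tested dose; inactive = the rest.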
Target: Baculoviral IAP repeat-containing protein 2 (Homo sapiens) (UniProt Q13490)
Test: SMAC mimetics displacing peptide from cIAP1 – biochemical, SAR follow-up (AID 1508599)
Details: cIAP1 BIR3 / rhodamine-SMAC peptide fluorescence polarization

Sequence of Baculoviral IAP repeat-containing protein 2 (Homo sapiens) (Q13490 whole entry, looked up): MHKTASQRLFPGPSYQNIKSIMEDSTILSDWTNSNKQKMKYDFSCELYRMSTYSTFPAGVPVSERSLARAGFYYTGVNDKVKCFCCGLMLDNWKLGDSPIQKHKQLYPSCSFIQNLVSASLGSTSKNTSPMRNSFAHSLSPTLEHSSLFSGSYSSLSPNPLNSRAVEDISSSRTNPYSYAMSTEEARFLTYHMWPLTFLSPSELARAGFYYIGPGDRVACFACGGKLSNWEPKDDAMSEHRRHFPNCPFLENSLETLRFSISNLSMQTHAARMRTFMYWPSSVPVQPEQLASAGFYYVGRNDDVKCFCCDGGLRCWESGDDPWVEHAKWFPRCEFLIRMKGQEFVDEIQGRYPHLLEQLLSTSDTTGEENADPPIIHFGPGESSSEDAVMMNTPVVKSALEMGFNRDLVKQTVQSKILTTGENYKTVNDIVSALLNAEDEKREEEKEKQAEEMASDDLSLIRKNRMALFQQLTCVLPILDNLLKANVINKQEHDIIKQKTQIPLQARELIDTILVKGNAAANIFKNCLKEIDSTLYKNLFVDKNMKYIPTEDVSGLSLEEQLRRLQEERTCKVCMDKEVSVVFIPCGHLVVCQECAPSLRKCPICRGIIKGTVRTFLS

| IC50 | Structure (SMILES) |
| --- | --- |
| 0.078 µM | CN[C@@H](C)C(=O)N[C@@H]1C(=O)N2C(C(=O)Nc3cccc4ccccc34)CC[C@@H]2O[C@@H]1C (some centres not stated) |
| 0.072 µM | CN[C@@H](C)C(=O)N[C@H]1CCO[C@H]2CCC(C(=O)N[C@H]3CCCc4ccccc43)N2C1=O (some centres not stated) |
| 0.505 µM | CN[C@@H](C)C(=O)N[C@H]1CCO[C@H]2CC(C)(C)C(C(=O)Nc3ccccc3SSc3ccccc3NC(=O)C3N4C(=O)[C@@H](NC(=O)[C@H](C)NC)CCO[C@H]4CC3(C)C)N2C1=O (some centres not stated) |
| 2 µM and 1.79 µM | CN[C@@H](C)C(=O)N[C@H]1CC(=O)N[C@H]2CC(C)(C)C(C(=O)N[C@@H]3CCCc4ccccc43)N2C1=O (some centres not stated) |
| 0.363 µM and 2.52 µM and 0.605 µM | CN[C@@H](C)C(=O)N[C@H]1CCSC2CCCC(C(=O)N[C@@H]3CCCc4ccccc43)N2C1=O (some centres not stated) |
| 0.093 µM | CN[C@@H](C)C(=O)N[C@H]1Cc2c([nH]c3ccccc23)[C@H]2CCC(C(=O)N[C@@H]3CCCc4ccccc43)N2C1=O (some centres not stated) |
| 0.147 µM | CN[C@@H](C)C(=O)N[C@H]1CCO[C@H]2CC[C@H](C(=O)n3ccc4ccccc43)N2C1=O |
| 0.047 µM | CN[C@@H](C)C(=O)N[C@H]1CCO[C@H]2CC[C@@H](C(=O)Nc3cccc4ccccc34)N2C1=O |
| 0.272 µM and 0.037 µM | CN[C@@H](C)C(=O)N[C@H]1CCCN(C(C)=O)C2CCC(C(=O)N[C@H]3CCCc4ccccc43)N2C1=O (some centres not stated) |
| 21.1 µM | CN[C@@H](C)C(=O)N[C@H]1CCCN[C@H]2CCC(C(=O)Nc3cccc4ccccc34)N2C1=O (some centres not stated) |
| 1.3 µM | CN[C@@H](C)C(=O)N[C@H]1CCO[C@H]2CC[C@@H](C(=O)N[C@@H]3CCOc4ccccc43)N2C1=O |
| > 100 µM (inactive) | CN[C@@H](C)C(=O)N[C@H]1Cc2cc(O)c(O)cc2[C@H]2CC(C)(C)C(C(=O)N[C@@H]3CCCc4ccccc43)N2C1=O (some centres not stated) |
| 0.157 µM | CN[C@@H](C)C(=O)N[C@H]1CCS[C@H]2CCC(C(=O)N[C@H]3CCCc4ccccc43)N2C1=O (some centres not stated) |
| 0.789 µM | CN[C@@H](C)C(=O)N[C@H]1CCCN[C@H]2CCC(C(=O)N[C@H]3CCCc4ccccc43)N2C1=O (some centres not stated) |
| 0.74 µM | CN[C@@H](C)C(=O)N[C@H]1CCO[C@H]2CC[C@@H](C(=O)N[C@@H]3CCCc4ccccc43)N2C1=O |
| 1.35 µM | CN[C@@H](C)C(=O)N[C@H]1CCO[C@H]2CC3(CCCC3)C(C(=O)N[C@@H]3CCCc4ccccc43)N2C1=O (some centres not stated) |

| IC50 | Structure (SMILES) |
| --- | --- |
| 11.6 µM | CN[C@@H](C)C(=O)N[C@H]1CCS(=O)(=O)[C@H]2CC[C@@H](C(=O)N[C@@H]3CCCc4ccccc43)N2C1=O |
| 0.263 µM | CN[C@@H](C)C(=O)N[C@H]1CCO[C@H]2CCC(C(=O)Nc3cccc4ccccc34)N2C1=O (some centres not stated) |
| 1.21 µM | CN[C@@H](C)C(=O)N[C@H]1CCO[C@H]2CC[C@@H](C(=O)n3ccc4ccccc43)N2C1=O |
| inactive | CN[C@@H](C)C(=O)N[C@H]1Cc2cc(O)ccc2[C@H]2CC(C)(C)C(C(=O)N[C@@H]3CCCc4ccccc43)N2C1=O (some centres not stated) |
| > 100 µM (inactive) | CN[C@@H](C)C(=O)N[C@H]1CCS(=O)(=O)[C@H]2CC[C@H](C(=O)N[C@@H]3CCCc4ccccc43)N2C1=O |
| 8.44 µM | CN[C@@H](C)C(=O)N[C@H]1CCO[C@H]2c3ccccc3C(C(=O)N[C@@H]3CCCc4ccccc43)N2C1=O (some centres not stated) |
| 6.85 µM | CC(=O)N(C)[C@@H](C)C(=O)N[C@H]1CCCN(C(C)=O)[C@H]2CCC(C(=O)Nc3cccc4ccccc34)N2C1=O (some centres not stated) |
| 0.21 µM | CN[C@@H](C)C(=O)N[C@H]1CCO[C@H]2CC(C)(C)[C@@H](C(=O)N[C@@H]3CCCc4ccccc43)N2C1=O |
| 0.235 µM | CN[C@@H](C)C(=O)N[C@@H]1C(=O)N2C(C(=O)NC(c3ccccc3)c3ccccc3)CC[C@@H]2O[C@@H]1C (some centres not stated) |
| > 100 µM (inactive) | CN[C@@H](C)C(=O)N[C@H]1CCO[C@H]2CC[C@H](C(=O)N[C@@H]3CCOc4ccccc43)N2C1=O |
| 0.14 µM | CN[C@@H](C)C(=O)N[C@H]1CCS[C@H]2CC[C@@H](C(=O)N[C@@H]3CCCc4ccccc43)N2C1=O |
| 0.113 µM | CN[C@@H](C)C(=O)N[C@H]1CCN[C@H]2CCC(C(=O)N[C@@H]3CCCc4ccccc43)N2C1=O (some centres not stated) |
| > 100 µM (inactive) | CN[C@@H](C)C(=O)N[C@H]1CCS(=O)(=O)[C@H]2CC(C)(C)[C@@H](C(=O)N[C@@H]3CCCc4ccccc43)N2C1=O |
| 14.9 µM | CN[C@@H](C)C(=O)N[C@H]1Cc2cccc(O)c2[C@H]2CC(C)(C)C(C(=O)N[C@@H]3CCCc4ccccc43)N2C1=O (some centres not stated) |
| 0.294 µM | CN[C@@H](C)C(=O)N[C@H]1CCO[C@H]2CCC(C(=O)NC(c3ccccc3)c3ccccc3)N2C1=O (some centres not stated) |
| 1 µM | CN[C@@H](C)C(=O)N[C@H]1CCS[C@H]2CC[C@H](C(=O)N[C@@H]3CCCc4ccccc43)N2C1=O |

Reference: PubChem BioAssay AID1508599 (Sanford-Burnham Center for Chemical Genomics, 2020)
